BindingDB's records for doi:10.1021/jm00006a011 (Merck Sharp & Dohme Research Laboratories, 1995)

Biological target: Substance-P receptor (Homo sapiens, UniProt P25103)
Assay: Binding affinity at human Tachykinin receptor 1 expressed in CHO cells by [125 I][…]-substance P displacement.

Sequence of Substance-P receptor (P25103 whole entry): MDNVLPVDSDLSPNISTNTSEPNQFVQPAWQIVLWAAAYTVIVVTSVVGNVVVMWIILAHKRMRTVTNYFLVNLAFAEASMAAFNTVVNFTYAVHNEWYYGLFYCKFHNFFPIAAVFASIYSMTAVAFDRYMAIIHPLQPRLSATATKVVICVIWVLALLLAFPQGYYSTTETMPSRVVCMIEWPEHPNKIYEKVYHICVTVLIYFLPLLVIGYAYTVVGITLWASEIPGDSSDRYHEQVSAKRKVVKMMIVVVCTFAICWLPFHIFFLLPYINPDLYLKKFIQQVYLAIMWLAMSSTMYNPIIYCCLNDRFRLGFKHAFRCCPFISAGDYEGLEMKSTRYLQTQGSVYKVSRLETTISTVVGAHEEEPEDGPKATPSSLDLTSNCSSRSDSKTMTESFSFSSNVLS

- IC50: 22 nM
Compound: O=c1oc(Cc2c[nH]c3ccccc23)c(O)n1Cc1cc(C(F)(F)F)cc(C(F)(F)F)c1
